Laboratory results published in paper PMC6982040, “A Purified Aspartic Protease from Akkermansia Muciniphila Plays an Important Role in Degrading Muc2” (International Journal of Molecular Sciences, 2019).
Square brackets hold non-standard residues; d marks the D form. Peptide text beside a SMILES is read from it. * marks the point of attachment. Sta = CC(C)C[C@H](N)[C@@H](O)CC(=O)O; Isovaleryl = CC(C)CC(=O)*

Biological target: T1, Amuc_1434* (Akkermansia muciniphila, UniProt B2UKY3)
T1 construct: recombinant, 6xHis-tag (N-terminal as printed; Pet25b-His vector), E. coli Rosetta (DE3), Ni-Sepharose; ~50 kDa on SDS-PAGE; b10 says amplified from genomic DNA, b49 says gene synthesized
T1 sequence (B2UKY3 22-326): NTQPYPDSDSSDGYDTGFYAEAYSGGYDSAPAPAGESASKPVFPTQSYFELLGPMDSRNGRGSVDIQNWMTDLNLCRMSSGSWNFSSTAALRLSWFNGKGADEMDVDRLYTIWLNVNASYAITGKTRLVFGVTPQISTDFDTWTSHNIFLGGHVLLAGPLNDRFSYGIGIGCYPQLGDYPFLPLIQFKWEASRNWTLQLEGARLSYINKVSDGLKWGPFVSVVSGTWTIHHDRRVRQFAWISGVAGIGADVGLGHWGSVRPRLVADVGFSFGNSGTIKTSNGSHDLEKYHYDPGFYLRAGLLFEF
Test: hemoglobin hydrolysis, UV absorbance at […] nm
Format: biochemical
Details: read-out: Relative Activity (%)

SMILES | activity at 10 µM [%] | activity at 20 µM [%]
CC(C)C[C@H](NC(=O)[C@@H]1O[C@H]1C(=O)O)C(=O)NCCCCN=C(N)N [E-64] | 88.5 ± 4.7 | –
CC(C)CC(=O)N[C@H](C(=O)N[C@H](C(=O)N[C@@H](CC(C)C)[C@@H](O)CC(=O)N[C@@H](C)C(=O)N[C@@H](CC(C)C)[C@@H](O)CC(=O)O)C(C)C)C(C)C [pepstatin A] (Isovaleryl-VV[Sta]A[Sta]-OH) | – | 40.1 ± 6.7
